Earlier results in patent US12285420B2 (ACASTI PHARMA U.S., INC., priority 2018, dated 2025).

Tests used:
[1] = nimodipine-treated subarachnoid hemorrhage (SAH) patients
[2] = man, oral administration

- Concentration of nimodipine detected in the cerebrospinal fluid [1]: ≤ 12.5 ng/mL
- Half-life equivalent to earlier elimination rates [2]: 1 to 2 h
Compound: COCCOC(=O)C1=C(C)NC(C)=C(C(=O)OC(C)C)C1c1cccc([N+](=O)[O-])c1 (centres unmarked) [nimodipine, isopropyl 2-methoxyethyl 1,4-dihydro-2,6-dimethyl-4-(m-nitrophenyl)-3,5-pyridinedicarboxylate]
